“And” between values parts separate entries of the source, which are not always exact repeats. Equal values may be shown once. Marks after values point to notes of the source that are not given here.
How the values were obtained:
[1] = Osmolality of API formulations (micro osmometer, triplicate); format: physicochemical
Method: Osmolality readings were obtained on an Advanced Instruments Advanced™ Micro Osmometer Model 3300 (Advanced Instruments, Inc. Norwood, MA, USA). Saline solutions (0.9% and 3%) were run as positive controls. Each sample was calculated as the mean from back-to-back triplicate measurements. When replicate batches were measured, data was reported as mean±SEM.
The procedure was performed on a 2 mL scale. […] Benzethonium chloride (20 μL of a 1% solution, 0.01% final concentration) was added via micropipette. The pH was adjusted to ˜7.00 with 2M sodium hydroxide, or either 1M or 2M HCl in some cases, and then the mixture was transferred to a 2 mL volumetric flask to be diluted with HPLC grade water. […]
Method 1: In a 5 mL borosilicate glass test tube which contained a Teflon-coated magnetic stir bar, Captisol®-Na+ ([…], H+ equivalents, moisture corrected) was dissolved in HPLC grade water (1.6-1.7 mL), API salt (HCl in most cases) (70 mg/mL FB equivalents) was added and the mixture was stirred until a homogenous transparent solution formed. Benzethonium chloride (20 μL of a 1% solution, giving a 0.01% final concentration) was added via micropipette. The pH was adjusted to ˜7.00 with 1M or 2M sodium hydroxide, or either 1M or 2M HCl in some cases, and then the mixture was transferred to a 2 mL volumetric flask to be diluted with HPLC grade water. […]
Benzethonium chloride (20 μL of a 1% solution, giving a 0.01% final concentration) was added via micropipette. The pH was adjusted to ˜7.00 with 1M or 2M sodium hydroxide, or either 1M or 2M HCl in some cases, and then the mixture transferred to a 2 mL volumetric flask to be diluted with HPLC grade water. […]
The solution was transferred to a 2 mL volumetric flask and diluted to the target volume with HPLC grade water. […]

[2] = pH of API formulations (pH meter); format: physicochemical; conditions: for final pH: after 2M NaOH
[3] = in water, cited from earlier work; for Reported Freebase Solubility: vendor or literature value
[4] = literature value; cited from earlier work
[5] = API-CapAcid salts prepared in ethanol, then 70 mg of solid added to 1 mL water (visual); format: physicochemical; conditions: for pH of the ethanol solution prior to titration: API FB 100 mg + CapAcid 1 molar equivalent (H^+) in 10 mL 200 proof ethanol; for dissolution of 70 mg of the ethanol-prepared API-CapAcid solid in 1 mL water: visual, vortexed
Method: The resulting solid API-CapAcid salts were then obtained as solids by evaporation of the ethanol, followed by lyophilization.
In a scintillation vial, a solution of API FB (100 mg) and CapAcid (1 molar equivalent, moisture corrected) was prepared by dissolving Cap Acid in 200 proof ethanol (5 mL) and then adding the freebase API. […] Whether or not the freebase dissolved after the second addition of ethanol, the initial pH, prior to titration, was recorded. The vial was then wrapped in foil and left uncovered in the hood to allow the ethanol to evaporate. After the ethanol fully evaporated, a small amount of HPLC grade water (3-5 mL) was added to each to see if the product would dissolve or become a suspension in the water. The solution was then lyophilized to remove the water. The product was ground with a stir rod and 70±0.1 mg was added to 1 mL of water to see if it would dissolve.

[6] = Dissolution of API freebase in aqueous CapAcid / Captisol solutions at defined API:CapAcid ratios, visual inspection and NaOH titration
[7] = Osmolality of API formulations (micro osmometer, triplicate); format: physicochemical; conditions: API FB with Captisol® Sodium, 1 molar equivalent relative to the cyclodextrin, after 48 hours
[8] = Visual dissolution / precipitation of API free base-CapAcid formulations at stated API:CapAcid ratios; format: physicochemical
[9] = API FB CapAcid formulation, 70 mg/mL API FB, 1.1 equivalents CapAcid (H^+ equivalents), after titration
[10] = API Salt (70 mg/mL API Salt in FB equivalent) in water
[11] = API salt Captisol®-Na^+ formulation, 70 mg/mL FB equivalent, 1.1 equivalents Captisol®-Na^+
[12] = CapAcid-API Freebase Formulation (70 mg/mL API FB, 1.1 molar equivalent CapAcid), after pH titration with NaOH or HCl
[13] = Captisol®-Na^+ formulation, 70 mg/mL API Salt in FB equivalent, 1.1 molar equivalent Captisol®-Na^+
[14] = 70 mg/mL API FB, 1.1 equivalents CapAcid, before NaOH/HCl
[15] = 70 mg/mL API salt (FB equivalent), 1.1 equivalents Captisol®-Na^+, before NaOH
[16] = CapAcid-API Freebase Formulation (70 mg/mL API FB, 1.1 molar equivalent CapAcid), final pH after titration and dilution
[17] = Captisol®-Na^+ formulation, 70 mg/mL API Salt in FB equivalent, 1.1 molar equivalent Captisol®-Na^+, final pH
[18] = 70 mg/mL API FB and 1 equivalent of 6M HCl in water
[19] = 70 mg/mL API FB, 1 equivalent of 6M HCl, 1.1 equivalents Captisol®-Na^+
[20] = *70 mg/mL API FB + molar equivalent of 6M HCl in water
[21] = Captisol®-Na^+ formulation, *70 mg/mL API FB + 6M HCl, 1.1 molar equivalent Captisol®-Na^+
[22] = 70 mg/mL API FB, 1 equivalent 6M HCl, 1.1 equivalents Captisol®-Na^+, before NaOH/HCl
[23] = API salt 70 mg/mL (FB equivalents) in water
[24] = 1:1 ratio of API to CapAcid (relative to the cyclodextrin), water
[25] = 2:1 ratio of API to CapAcid (relative to the cyclodextrin), water

NC12CC3CC(CC(C3)C1)C2 [1-Amantadine]
Osmolality [1, 9]: 411.6 mOsmol/kg
Osmolality [1, 10]: 832 mOsm/kg
Osmolality [1, 11]: 1,446.7 mOsmol/kg
Osmolality [1, 12]: 411.6 mOsm/kg
Osmolality [1, 13]: 1,446.7 mOsm/kg
pH of the solution prior to titration [2, 14]: 1.43
pH of the solution prior to titration [2, 15]: 3.93
pH [2, 10]: 5.67
pH [2, 16]: 6.97
pH [2, 17]: 6.99

NC1C2CC3CC(C2)CC1C3 (stereo not drawn) [2-Amantadine]
Osmolality [1, 9]: 435.7 mOsmol/kg
Osmolality [1, 10]: 826.7 mOsm/kg
Osmolality [1, 11]: 1,492.7 mOsmol/kg
Osmolality [1, 12]: 435.7 mOsm/kg
Osmolality [1, 13]: 1492.7 mOsm/kg
pH of the solution prior to titration [2, 14]: 1.29
pH of the solution prior to titration [2, 15]: 5.63
pH [2, 10]: 6.94
pH [2, 16]: 7.06
pH [2, 17]: 7.01

Nc1ccncc1N [Amifampridine, Pyridine-3,4-diamine]
Osmolality [1, 18]: 740.3 mOsmol/kg
Osmolality [1, 19]: 1023.3 mOsmol/kg
Osmolality [1, 20]: 740.3*^ mOsm/kg
Osmolality [1, 9]: 532.7 mOsmol/kg
Osmolality [1, 12]: 532.7** mOsm/kg
Osmolality [1, 21]: 1,023.3* mOsm/kg
pH of the solution prior to titration [2, 22]: 9.27
pH of the solution prior to titration [2, 14]: 9.19
Reported Freebase Solubility [3]: 7000 µg/mL

NCC[C@H](O)C(=O)N[C@@H]1C[C@H](N)[C@@H](O[C@H]2O[C@H](CN)[C@@H](O)[C@H](O)[C@H]2O)[C@H](O)[C@H]1O[C@H]1O[C@H](CO)[C@@H](O)[C@H](N)[C@H]1O [Amikacin]
Osmolality [1, 18]: 287 mOsmol/kg
Osmolality [1, 19]: 504.3 mOsmol/kg
Osmolality [1, 20]: 287* mOsm/kg
Osmolality [1, 9]: 268 mOsmol/kg and 252.2 mOsmol/kg
Osmolality [1, 12]: 1: 268 mOsm/kg and 2: 252.3 mOsm/kg
Osmolality [1, 21]: 504.3* mOsm/kg
pH of the solution prior to titration [2, 22]: 1.28
pH of the solution prior to titration [2, 14]: 1.13 and 1.25
pKa [4]: 8.1^14

COc1ccccc1OCCNCC(O)COc1cccc2[nH]c3ccccc3c12 (stereo not drawn) [Carvedilol]
pH of the ethanol solution prior to titration [5]: 0.82
dissolution of 70 mg of the ethanol-prepared API-CapAcid solid in 1 mL water ([5]; Method 2 solid): insoluble solution
dissolution of 70 mg of the ethanol-prepared API-CapAcid solid in 1 mL water [5]: insoluble solution

CC[C@H](C)C[C@H](C)CCCCCCCCC(=O)N[C@H]1C[C@@H](O)[C@@H](NCCN)NC(=O)[C@@H]2[C@@H](O)CCN2C(=O)[C@H]([C@H](O)CCN)NC(=O)[C@H]([C@H](O)[C@@H](O)c2ccc(O)cc2)NC(=O)[C@@H]2C[C@@H](O)CN2C(=O)[C@H]([C@@H](C)O)NC1=O [Caspofungin]
Osmolality [1, 9]: 59 mOsmol/kg
Osmolality [1, 10]: 94 mOsm/kg
Osmolality [1, 23]: 94 mOsmol/kg
Osmolality [1, 11]: 209.3 mOsmol/kg
Osmolality [1, 12]: 59** mOsm/kg
Osmolality [1, 13]: 209.3 mOsm/kg
pH of the solution prior to titration [2, 14]: 7.78
pH of the solution prior to titration [2, 15]: 6.13
pH [2, 10]: 5.86
pH [2, 17]: 7.04

COc1c(OCCCN2CCOCC2)ccc2c1N=C(NC(=O)c1cnc(N)nc1)N1CCN=C21 [Copanlisib]
pH of the solution before titration ([2]; 1:1 ratio of API to CapAcid): 0.76
final pH ([2]; 1:1 ratio of API to CapAcid): 6.13
pH of the solution before titration ([2]; 2:1 ratio of API to CapAcid): 2.10
pH of the ethanol solution prior to titration [5]: 0.66
dissolution of 70 mg of the ethanol-prepared API-CapAcid solid in 1 mL water [5]: became cloudy with a brown precipitate at the bottom
Reported Freebase Solubility [3]: Insoluble^19
Reported Salt Solubility [3]: 0.023 mg/mL^18
concentration (FB equivalents) at which the freebase dissolved [6, 24]: 33300 µg/mL
dissolution by visual inspection ([6]; 2:1 ratio of API to CapAcid, 100 mg FB in 30 mL water (3 mg/mL)): clear with a small amount of undissolved oil
pH at which precipitation occurred on titration with NaOH ([6]; 2:1 ratio of API to CapAcid, target 3 mg/mL): 2.20

COc1ccc2c(c1)[C@]13CCCC[C@@H]1[C@H](C2)N(C)CC3 [DXM]
solubility as stoichiometric (6.5:1) CapAcid salt compared with known API salts, in words ([6]; 70 mg/mL formulations): dramatic improvement in solubility

COC(=O)[C@@H](N)Cc1ccc(O)c(O)c1 [Melevodopa]
Osmolality [1, 9]: 605.7 mOsmol/kg
Osmolality [1, 12]: 605.7 mOsm/kg
pH of the solution prior to titration [2, 14]: 1.22
pH [2, 16]: 6.97

Cc1ncc2n1-c1ccc(Cl)cc1C(c1ccccc1F)=NC2 [Midazolam]
final pH of the solution ([2]; 3:1 ratio, after 0.5 M HCl redissolved the solid): 2.86
pH when solids began to crash out ([2]; 3:1 ratio, after 360 μL total 2M NaOH): 2.92
highest achievable pH without precipitation of freebase solids ([6]; 3:1 ratio of API to CapAcid (relative to the cyclodextrin), 300.8 mg FB in 10 mL water): 3.15
dissolution by visual inspection ([6]; 3:1 ratio of API to CapAcid (relative to the cyclodextrin), 10 mL water): transparent colorless solution
dissolution by visual inspection ([6]; CapAcid 1 molar equivalent relative to H^+, 300.8 mg FB in 10 mL water, 30 minutes): cloudy suggesting incomplete dissolution

N=C(N)c1ccc2cc(OC(=O)c3ccc(N=C(N)N)cc3)ccc2c1 [Nafamostat]
pH of the solution before titration ([2]; 1:1 ratio of API to CapAcid): 0.49
final pH ([2]; 1:1 ratio of API to CapAcid): 6.99
pH of the solution before titration ([2]; 2:1 ratio of API to CapAcid): 1.55
final pH ([2]; 2:1 ratio of API to CapAcid): 6.96
Osmolality [7]: 354.3 mOsm/Kg
concentration (FB equivalents) at which the freebase dissolved [6, 24]: 33300 µg/mL
concentration (FB equivalents) at which the freebase dissolved [6, 25]: 3000 µg/mL
concentration at which the freebase dissolved ([6]; API FB with Captisol® Sodium 1 molar equivalent, water, stirring 30 minutes): ~16700 µg/mL

C=CCN1CC[C@]23c4c5ccc(O)c4O[C@H]2C(=O)CC[C@@]3(O)[C@H]1C5 [Naloxone]
Osmolality [1, 10]: 279 mOsm/kg
Osmolality [1, 23]: 279 mOsmol/kg
Osmolality [1, 11]: 531.7 mOsmol/kg
Osmolality [1, 12]: 139.7 mOsm/kg
Osmolality [1, 13]: 531.7 mOsm/kg
pH [2, 10]: 4.39
pH [2, 16]: 6.01
pH [2, 17]: 5.98
Reported Freebase Solubility [3]: 1415 µg/mL
Reported Salt Solubility [3]: 50 mg/mL^13
pH past which the freebase crashed out ([6]; 70 mg/mL FB, 1.1 equivalents CapAcid): > 6.00

CCC(CC)COC(=O)[C@H](C)N[P@](=O)(OC[C@H]1O[C@@](C#N)(c2ccc3c(N)ncnn23)[C@H](O)[C@@H]1O)Oc1ccccc1 [Remdesivir]
Reported Freebase Solubility [3]: Insoluble^15

CN1CCC[C@@H]1Cc1c[nH]c2ccc(CCS(=O)(=O)c3ccccc3)cc12 [eletriptan]
solubility compared to higher API:captisol ratio ([8]; 2:1 ratio to captisol compared to 4:1 ratio): superior solubility
appearance at higher API:captisol ratio ([8]; 4:1 ratio to captisol): precipitation
pH of the solution before titration ([2]; 1:1 ratio of API to CapAcid): 0.48
final pH ([2]; 1:1 ratio of API to CapAcid): 6.06
pH of the solution before titration ([2]; 2:1 ratio of API to CapAcid): 1.42
final pH ([2]; 2:1 ratio of API to CapAcid): 6.08
pH of the solution before titration ([2]; 4:1 ratio of API to CapAcid): 2.34
final pH ([2]; 4:1 ratio of API to CapAcid): 6.01
pH of the ethanol solution prior to titration [5]: 8.02
dissolution of 70 mg of the ethanol-prepared API-CapAcid solid in 1 mL water [5]: became cloudy but a large amount of oil remained at the bottom
Reported Salt Solubility [3]: <1 mg/mL^16
concentration (FB equivalents) at which the freebase dissolved [6, 24]: 33300 µg/mL
concentration (FB equivalents) at which the freebase dissolved [6, 25]: ~8300 µg/mL
dissolution by visual inspection ([6]; 4:1 ratio of API to CapAcid, 100 mg FB in 30 mL water, stirring for 2 days): most of the FB dissolved and the solution was cloudy

— patent US20250345458A1, “COMPLEXING AGENT SALT FORMULATIONS OF PHARMACEUTICAL COMPOUNDS AT LOW STOICHIOMETRIC RATIOS” (Bexson Biomedical, Inc., priority 2022, published 2025)
